The text below walks through data of US20090023630A1, “Methods and Means for Use in Diagnostics and Treatment of Diabetes” (priority 2005, published 2009).

Where two headings read alike, the source gives them in different places. Ends that are not written are not given here. Bounds are passed on as bounds.

The target in the assay is HLA-A*0201 (Homo sapiens, UniProt P04439, D140Y/D185E/D98H/E176V/E277Q/G131W/G231S/I119V/I121R/I166T/I218V/L300P/L318F/N151K/N90K/P208A/P217A/Q86G/Q94H/R138H/R169H/T345S). Description: Peptide-HLA binding (competition with Fl-labeled HLA-A*0201 binding peptide). As for the experimental part:
Peptide binding was assessed as described (21). […] HLA-bound and non-bound Fl-labeled peptides were separated by HPLC gel permeation chromatography with fluorescence detection. The concentration at which the test peptide reduced the amount of HLA-bound Fl-labeled peptide by 50% (IC50) was calculated using non-linear regression analysis. To select candidate HLA-A*0201 binding peptides from the insulin B chain, the molecule was screened for HLA-A*0201 binding motif containing peptides with a combination of two known binding prediction algorithms (18).

The mark [1] stands for this setting: peptide concentration needed to inhibit binding of FL-labeled reference peptide for 50%, read-out: IC50 (binding affinity for HLA-A*0201).

In general, IC50 refers to the concentration at which inhibition is half-maximal.

As to HLVEALYLVC [Peptide 10-19], the IC50 under setting [1] stood at 1.75 µM.

Regarding ALYLVCGERGF [Peptide 14-24], under setting [1], the IC50 was 2.26 µM.

Take ALYLVCGER [Peptide 14-22]: the IC50 stood at 90.2 µM.

On to GSHLVEALYLV [Peptide 8-18], for which the IC50 under setting [1] stood at 3.73 µM.

As to HLCGSGLVEAL [Peptide 5-15, HLCGSGLVEAL], under setting [1], the IC50 came out at 0.44 µM.

Regarding `CC(C)C[C@H](NC(=O)[C@H](C)N)C(=O)N[C@@H](Cc1ccc(O)cc1)C(=O)N[C@@H](CC(C)C)C(=O)N[C@H](C(=O)N[C@@H](CS)C(=O)NCC(=O)N[C@@H](CCC(=O)O)C(=O)N[C@@H](CCCNC(=N)N)C(=O)NCC(=O)O)C(C)C` [Peptide 14-23], under setting [1], the IC50 was over 100 µM.

YLVCGERGFFY [Peptide 16-26]: the 50% inhibitory concentration (IC50) under setting [1] was 8.59 µM.

Turning to SHLVEALYL [Peptide 9-17], the IC50 under setting [1] stood at 59.5 µM.

Consider YLVCGERGFF [Peptide 16-25], for which the IC50 under setting [1] was 2.3 µM.

With QHLCGSHLV [Peptide 4-12], under setting [1], the IC50 amounted to 9.12 µM.

In the case of HLCGSHLVEA [Peptide 5-14], the IC50 turned out to be 0.06 µM.

Turning to HLVEALYLVCG [Peptide 10-20], the IC50 is 0.19 µM.

On to LVEALYLVC [Peptide 11-19], for which the half-maximal inhibitory concentration (IC50) was found to be 3.6 µM.

Regarding SHLVEALYLV [Peptide 9-18], the IC50 was found to be 1.37 µM.
